This is an account of results in ChEMBL document CHEMBL5291721, “A preclinical secondary pharmacology resource illuminates target-adverse drug reaction associations of marketed drugs” (Nat Commun, 2023).

Some targets named below: Histamine H3 receptor (Homo sapiens, UniProt Q9Y5N1); Mu-type opioid receptor (Homo sapiens, UniProt P35372); D(3) dopamine receptor (Homo sapiens, UniProt P35462).
Test [1] deals with T1, Alpha-1A adrenergic receptor (Homo sapiens, UniProt P35348).
T1 sequence (P35348 whole entry): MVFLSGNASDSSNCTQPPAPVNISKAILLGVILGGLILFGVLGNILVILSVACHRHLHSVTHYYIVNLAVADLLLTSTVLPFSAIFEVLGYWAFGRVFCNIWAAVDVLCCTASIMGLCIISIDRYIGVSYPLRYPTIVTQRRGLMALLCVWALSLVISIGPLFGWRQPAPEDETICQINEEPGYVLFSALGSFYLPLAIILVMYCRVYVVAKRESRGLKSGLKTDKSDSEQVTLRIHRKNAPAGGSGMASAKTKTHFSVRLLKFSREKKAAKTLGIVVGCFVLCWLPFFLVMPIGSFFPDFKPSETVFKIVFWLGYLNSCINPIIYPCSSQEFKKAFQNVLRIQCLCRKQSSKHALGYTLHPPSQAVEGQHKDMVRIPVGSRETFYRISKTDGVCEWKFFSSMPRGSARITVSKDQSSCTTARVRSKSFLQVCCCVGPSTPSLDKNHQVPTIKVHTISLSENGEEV
Format: functional, cell-based.

Test [2] deals with T2, Muscarinic acetylcholine receptor M2 (Homo sapiens, UniProt P08172).
T2 sequence (P08172 whole entry): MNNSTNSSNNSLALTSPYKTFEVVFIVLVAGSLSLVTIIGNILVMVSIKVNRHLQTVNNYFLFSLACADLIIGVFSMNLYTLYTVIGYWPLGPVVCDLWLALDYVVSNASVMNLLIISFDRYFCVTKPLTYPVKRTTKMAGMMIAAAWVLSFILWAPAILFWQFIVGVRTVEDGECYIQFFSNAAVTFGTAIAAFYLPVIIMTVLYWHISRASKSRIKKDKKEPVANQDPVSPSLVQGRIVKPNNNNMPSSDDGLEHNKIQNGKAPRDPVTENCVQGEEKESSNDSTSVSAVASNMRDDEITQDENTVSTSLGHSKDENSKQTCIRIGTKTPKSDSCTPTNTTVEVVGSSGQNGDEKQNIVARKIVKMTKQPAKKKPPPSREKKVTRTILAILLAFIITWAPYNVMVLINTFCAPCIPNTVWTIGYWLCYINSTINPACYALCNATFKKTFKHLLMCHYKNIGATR

Test [3] deals with 3',5'-cyclic-AMP phosphodiesterase 4A (Homo sapiens, UniProt P27815). Format: functional.
The target of test [4] is T3, Alpha-2A adrenergic receptor (Homo sapiens, UniProt P08913).
T3 sequence (P08913 whole entry): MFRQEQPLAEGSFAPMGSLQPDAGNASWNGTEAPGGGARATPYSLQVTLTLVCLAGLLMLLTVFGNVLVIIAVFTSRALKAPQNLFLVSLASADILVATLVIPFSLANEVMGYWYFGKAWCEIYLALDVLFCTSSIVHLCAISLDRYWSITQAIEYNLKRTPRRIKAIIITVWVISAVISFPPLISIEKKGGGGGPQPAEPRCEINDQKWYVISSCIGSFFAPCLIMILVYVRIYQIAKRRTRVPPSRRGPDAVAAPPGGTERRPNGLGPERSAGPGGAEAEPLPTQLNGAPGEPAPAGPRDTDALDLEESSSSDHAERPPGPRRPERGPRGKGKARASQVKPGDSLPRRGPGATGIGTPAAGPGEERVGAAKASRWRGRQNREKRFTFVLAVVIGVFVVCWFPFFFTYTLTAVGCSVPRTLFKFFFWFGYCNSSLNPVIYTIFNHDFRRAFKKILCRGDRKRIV

The target of test [5] is Voltage-gated inwardly rectifying potassium channel KCNH2 (Homo sapiens, UniProt Q12809). Format: functional. The conditions noted are these: read-out: AC50.
In test [6] the target is T1, Alpha-1A adrenergic receptor. Format: functional, cell-based. The source holds these as a separate data set.
For another test, the target named is T4, Estrogen receptor (Homo sapiens, UniProt P03372).
T4 sequence (P03372 whole entry): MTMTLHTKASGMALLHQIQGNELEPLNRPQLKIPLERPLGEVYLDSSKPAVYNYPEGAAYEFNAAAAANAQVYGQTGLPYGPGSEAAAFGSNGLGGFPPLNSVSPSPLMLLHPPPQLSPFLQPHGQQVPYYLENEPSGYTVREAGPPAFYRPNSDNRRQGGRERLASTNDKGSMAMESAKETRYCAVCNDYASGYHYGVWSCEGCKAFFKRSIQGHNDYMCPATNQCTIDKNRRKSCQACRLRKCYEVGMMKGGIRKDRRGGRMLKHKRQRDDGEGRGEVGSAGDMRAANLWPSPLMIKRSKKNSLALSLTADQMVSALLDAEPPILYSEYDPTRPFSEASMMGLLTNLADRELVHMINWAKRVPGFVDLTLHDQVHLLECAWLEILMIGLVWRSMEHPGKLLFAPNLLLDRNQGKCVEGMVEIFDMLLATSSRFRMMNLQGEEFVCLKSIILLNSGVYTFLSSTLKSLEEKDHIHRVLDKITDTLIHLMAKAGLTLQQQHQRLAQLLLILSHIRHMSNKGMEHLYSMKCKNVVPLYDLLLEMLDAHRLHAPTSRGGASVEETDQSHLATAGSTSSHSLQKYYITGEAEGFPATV

Bounds are passed on as bounds.
Note: assay procedure not described here.

Chain of Histamine H3 receptor (Q9Y5N1 whole entry): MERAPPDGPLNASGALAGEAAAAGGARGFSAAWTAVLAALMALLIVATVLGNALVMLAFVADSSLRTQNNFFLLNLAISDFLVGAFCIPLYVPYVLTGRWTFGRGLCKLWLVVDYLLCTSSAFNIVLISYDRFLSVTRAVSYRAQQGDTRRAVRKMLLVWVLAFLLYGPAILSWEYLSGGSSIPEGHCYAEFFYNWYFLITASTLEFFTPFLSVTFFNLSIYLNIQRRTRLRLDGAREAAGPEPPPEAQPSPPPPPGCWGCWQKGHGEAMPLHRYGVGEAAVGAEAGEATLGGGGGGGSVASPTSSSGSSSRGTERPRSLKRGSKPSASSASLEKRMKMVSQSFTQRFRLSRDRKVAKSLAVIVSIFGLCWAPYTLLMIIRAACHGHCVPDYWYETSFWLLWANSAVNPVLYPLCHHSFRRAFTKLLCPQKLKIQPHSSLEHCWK
Chain of 3',5'-cyclic-AMP phosphodiesterase 4A (P27815 whole entry): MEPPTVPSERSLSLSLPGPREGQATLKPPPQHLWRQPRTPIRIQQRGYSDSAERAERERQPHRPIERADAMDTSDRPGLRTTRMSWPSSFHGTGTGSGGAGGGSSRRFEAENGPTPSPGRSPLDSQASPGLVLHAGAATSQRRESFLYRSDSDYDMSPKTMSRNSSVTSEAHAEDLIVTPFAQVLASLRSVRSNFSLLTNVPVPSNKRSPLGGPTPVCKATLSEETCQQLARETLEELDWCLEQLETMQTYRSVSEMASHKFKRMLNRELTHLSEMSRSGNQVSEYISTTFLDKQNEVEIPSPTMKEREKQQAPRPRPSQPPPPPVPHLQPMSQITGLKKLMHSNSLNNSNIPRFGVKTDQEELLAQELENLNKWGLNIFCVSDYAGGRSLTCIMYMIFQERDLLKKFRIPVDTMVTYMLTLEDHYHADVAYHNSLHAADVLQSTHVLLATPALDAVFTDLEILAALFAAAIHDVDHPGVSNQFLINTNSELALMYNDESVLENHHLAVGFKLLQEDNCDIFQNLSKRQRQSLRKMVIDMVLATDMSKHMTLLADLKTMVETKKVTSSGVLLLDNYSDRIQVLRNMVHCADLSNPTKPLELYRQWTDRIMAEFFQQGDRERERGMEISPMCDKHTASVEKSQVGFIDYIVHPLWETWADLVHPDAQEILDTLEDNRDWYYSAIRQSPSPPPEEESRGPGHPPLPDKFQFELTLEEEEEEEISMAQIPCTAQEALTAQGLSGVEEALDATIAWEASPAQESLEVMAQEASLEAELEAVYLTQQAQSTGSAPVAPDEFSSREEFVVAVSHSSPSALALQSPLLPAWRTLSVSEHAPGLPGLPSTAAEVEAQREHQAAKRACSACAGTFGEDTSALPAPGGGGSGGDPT
Chain of Mu-type opioid receptor (P35372 whole entry): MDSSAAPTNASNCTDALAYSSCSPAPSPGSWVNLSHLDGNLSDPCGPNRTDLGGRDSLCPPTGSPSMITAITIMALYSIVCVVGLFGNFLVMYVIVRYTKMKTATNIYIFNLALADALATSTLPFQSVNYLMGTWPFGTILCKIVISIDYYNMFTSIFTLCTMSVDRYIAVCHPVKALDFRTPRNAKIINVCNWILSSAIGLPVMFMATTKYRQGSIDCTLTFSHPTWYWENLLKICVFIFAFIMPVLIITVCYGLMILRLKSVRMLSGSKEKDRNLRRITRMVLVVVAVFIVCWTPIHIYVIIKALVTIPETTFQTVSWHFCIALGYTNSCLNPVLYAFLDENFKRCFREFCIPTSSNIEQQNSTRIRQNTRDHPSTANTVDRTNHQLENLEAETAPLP
Chain of D(3) dopamine receptor (P35462 whole entry): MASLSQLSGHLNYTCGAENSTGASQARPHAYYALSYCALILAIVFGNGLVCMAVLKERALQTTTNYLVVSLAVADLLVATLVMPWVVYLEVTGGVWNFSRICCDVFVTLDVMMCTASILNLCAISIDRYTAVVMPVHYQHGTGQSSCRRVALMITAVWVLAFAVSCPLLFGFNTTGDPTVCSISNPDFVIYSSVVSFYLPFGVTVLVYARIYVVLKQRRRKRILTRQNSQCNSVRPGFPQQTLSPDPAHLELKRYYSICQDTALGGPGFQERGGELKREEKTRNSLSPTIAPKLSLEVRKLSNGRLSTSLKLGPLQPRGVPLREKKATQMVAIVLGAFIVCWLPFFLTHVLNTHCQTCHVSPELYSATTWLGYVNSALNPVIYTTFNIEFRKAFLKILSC
Chain of Voltage-gated inwardly rectifying potassium channel KCNH2 (Q12809 whole entry): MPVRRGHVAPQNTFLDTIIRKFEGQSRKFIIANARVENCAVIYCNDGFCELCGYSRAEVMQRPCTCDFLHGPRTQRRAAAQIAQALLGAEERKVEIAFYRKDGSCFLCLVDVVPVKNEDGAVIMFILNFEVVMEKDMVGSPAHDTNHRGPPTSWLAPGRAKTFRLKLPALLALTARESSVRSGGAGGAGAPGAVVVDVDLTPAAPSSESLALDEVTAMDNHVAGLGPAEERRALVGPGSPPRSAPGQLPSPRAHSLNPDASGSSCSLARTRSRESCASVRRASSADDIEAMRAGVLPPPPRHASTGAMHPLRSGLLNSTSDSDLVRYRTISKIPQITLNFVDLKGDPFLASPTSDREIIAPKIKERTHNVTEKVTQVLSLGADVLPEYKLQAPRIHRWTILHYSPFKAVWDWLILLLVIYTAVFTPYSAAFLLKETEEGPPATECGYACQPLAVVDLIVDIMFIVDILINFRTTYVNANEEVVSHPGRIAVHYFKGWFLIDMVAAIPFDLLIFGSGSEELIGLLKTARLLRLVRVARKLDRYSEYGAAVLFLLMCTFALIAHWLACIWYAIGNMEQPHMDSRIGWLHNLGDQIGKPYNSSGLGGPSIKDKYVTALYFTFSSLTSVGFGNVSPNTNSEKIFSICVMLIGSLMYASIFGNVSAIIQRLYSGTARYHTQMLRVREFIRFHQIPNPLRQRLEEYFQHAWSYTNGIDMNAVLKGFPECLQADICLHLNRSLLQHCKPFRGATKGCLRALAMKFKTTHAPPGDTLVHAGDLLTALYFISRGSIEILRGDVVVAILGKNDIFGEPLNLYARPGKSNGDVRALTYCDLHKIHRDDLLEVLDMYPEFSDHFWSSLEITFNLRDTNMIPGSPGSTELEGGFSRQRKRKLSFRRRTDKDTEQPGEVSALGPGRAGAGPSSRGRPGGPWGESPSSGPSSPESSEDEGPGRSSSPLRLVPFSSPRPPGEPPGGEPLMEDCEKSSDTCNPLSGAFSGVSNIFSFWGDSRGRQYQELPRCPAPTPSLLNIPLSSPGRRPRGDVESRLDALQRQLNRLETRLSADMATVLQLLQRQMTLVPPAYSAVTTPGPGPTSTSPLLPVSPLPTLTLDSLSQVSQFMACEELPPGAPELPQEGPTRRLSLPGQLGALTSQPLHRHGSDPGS

Take `N[C@@H](Cc1ccc(N(CCCl)CCCl)cc1)C(=O)O`: the AC50 in [1] was more than 30 µM; in test [2] it was 13.6 µM; in test [3] it was more than 30 µM; in test [4] it was 11.2 µM; on Histamine H3 receptor, more than 30 µM; in [5] it was 4.8 µM. Further, the AC50 on Mu-type opioid receptor is 20.6 µM; in test [6], more than 30 µM; on D(3) dopamine receptor, 24.8 µM.
In the case of `CC1=C(/C=C/C(C)=C\C=C\C(C)=C\C(=O)O)C(C)(C)CCC1` [ALITRETINOIN], the AC50 (in test [1]; in test [2]; in test [3]; in test [4]; at Histamine H3 receptor; at Mu-type opioid receptor) was more than 30 µM in each case. In addition, the AC50 (in [6]; on D(3) dopamine receptor) was more than 30 µM throughout.
Turning to `N=C(N)NC(=O)c1nc(Cl)c(N)nc1N` [AMILORIDE], the AC50 (in test [1]; in [2]; in test [3]; in test [4]; on Histamine H3 receptor; on Mu-type opioid receptor) was more than 30 µM in each case. Further, the AC50 (at Estrogen receptor; in [6]; on D(3) dopamine receptor) was more than 30 µM throughout.
In the case of `OCc1ccccc1` [BENZYL ALCOHOL], the concentration at half-maximal activity (AC50) (in [1]; in test [2]; in [3]; in test [4]; at Histamine H3 receptor; in test [5]) was more than 30 µM throughout. In addition, the AC50 (at Mu-type opioid receptor; at Estrogen receptor; in test [6]; on D(3) dopamine receptor) was more than 30 µM throughout.
`C[C@H]1C[C@H]2[C@@H]3CCC4=CC(=O)C=C[C@]4(C)[C@@]3(F)[C@@H](O)C[C@]2(C)[C@@]1(O)C(=O)CO` [BETAMETHASONE]: the AC50 (in test [1]; in test [2]; in [3]; in [4]; at Histamine H3 receptor; in test [5]) was more than 30 µM throughout. The AC50 (on Mu-type opioid receptor; in [6]; on D(3) dopamine receptor) was more than 30 µM throughout.
For `O=NN(CCCl)C(=O)NCCCl` [CARMUSTINE], the half-maximal activity concentration (AC50) (in test [1]; in test [2]; in test [4]; on Histamine H3 receptor; on Mu-type opioid receptor; in test [6]) was more than 30 µM in each case. In addition, the AC50 at D(3) dopamine receptor is more than 30 µM.
Regarding `CC(=O)OCC(=O)[C@@]1(OC(C)=O)[C@@H](C)C[C@H]2[C@@H]3C[C@H](F)C4=CC(=O)C=C[C@]4(C)[C@@]3(F)[C@@H](O)C[C@@]21C` [DIFLORASONE DIACETATE], the AC50 (in test [1]; in [2]; in test [3]; in test [4]; on Histamine H3 receptor; in test [5]) was more than 30 µM throughout. The half-maximal activity concentration (AC50) (at Mu-type opioid receptor; in test [6]; at D(3) dopamine receptor) was more than 30 µM in each case.
In the case of `COc1cccc2c1C(=O)c1c(O)c3c(c(O)c1C2=O)C[C@@](O)(C(=O)CO)C[C@@H]3O[C@H]1C[C@H](N)[C@H](O)[C@H](C)O1` [DOXORUBICIN], the AC50 in [1] is more than 30 µM; in [2], more than 30 µM; in [3] it was more than 30 µM; in [4], more than 30 µM; on Histamine H3 receptor, more than 30 µM; in test [5], 5.63 µM. The AC50 (on Mu-type opioid receptor; on Estrogen receptor; in [6]; on D(3) dopamine receptor) was more than 30 µM throughout.
As to `COc1cccc2c1C(=O)c1c(O)c3c(c(O)c1C2=O)C[C@@](O)(C(=O)CO)C[C@@H]3O[C@H]1C[C@H](N)[C@@H](O)[C@H](C)O1` [EPIRUBICIN], the AC50 in test [1] is 8.86 µM; in [2], 25.2 µM; in [3], 19.3 µM; in test [4], more than 30 µM; at Histamine H3 receptor it was more than 30 µM; at Mu-type opioid receptor, more than 30 µM. Besides, the AC50 is more than 30 µM at Estrogen receptor, more than 1 µM in test [6] and more than 30 µM at D(3) dopamine receptor.
In the case of `COC(=O)Nc1nc2cc(C(=O)c3ccc(F)cc3)ccc2[nH]1` [FLUBENDAZOLE], the AC50 (in test [1]; in [2]; in test [3]; in test [4]; on Histamine H3 receptor; in test [5]) was more than 30 µM in each case. The AC50 (on Mu-type opioid receptor; at Estrogen receptor; in test [6]; at D(3) dopamine receptor) was more than 30 µM each time.
Take `CC1=C(/C=C/C(C)=C/C=C/C(C)=C\C(=O)O)C(C)(C)CCC1` [ISOTRETINOIN]: the AC50 (in test [1]; in [2]; in test [3]; in test [4]; on Histamine H3 receptor; on Mu-type opioid receptor) was more than 30 µM throughout. The AC50 (in test [6]; at D(3) dopamine receptor) was more than 30 µM throughout.
`Cc1ccc(Cl)c(Nc2ccccc2C(=O)O)c1Cl` [MECLOFENAMIC ACID]: the AC50 in test [1] is more than 30 µM; in [2], more than 30 µM; in [3] it was 25.5 µM; in test [4] it was more than 30 µM; at Histamine H3 receptor it was more than 30 µM; in [5], more than 30 µM. For the same compound, the AC50 (on Mu-type opioid receptor; on Estrogen receptor; in test [6]; on D(3) dopamine receptor) was more than 30 µM throughout.
Regarding `C#C[C@]1(OC(C)=O)CC[C@H]2[C@@H]3CCC4=CC(=O)CC[C@@H]4[C@H]3CC[C@@]21C` [NORETHINDRONE ACETATE], the AC50 is more than 30 µM in test [1]; 9.44 µM in [2]; more than 30 µM in [3]; more than 30 µM in test [4]; more than 30 µM at Histamine H3 receptor; more than 30 µM in [5]. Also, the AC50 is more than 30 µM on Mu-type opioid receptor, 5.91 µM in [6] and more than 30 µM at D(3) dopamine receptor.
Turning to `NS(=O)(=O)c1cc2c(cc1Cl)NC(C(Cl)Cl)NS2(=O)=O` (configuration not stated) [TRICHLORMETHIAZIDE], the half-maximal activity concentration (AC50) (in [1]; in [2]; in [3]; in [4]; on Histamine H3 receptor; at Mu-type opioid receptor) was more than 30 µM each time. Moreover, the AC50 (in test [6]; at D(3) dopamine receptor) was more than 30 µM in each case.
Take `CC(CN(C)C)CN1c2ccccc2CCc2ccccc21` (configuration not stated) [TRIMIPRAMINE]: the AC50 in test [3] is more than 30 µM; in test [4], 1.27 µM; on Histamine H3 receptor, more than 30 µM; in [5], 8.9 µM; on Mu-type opioid receptor it was 5.7 µM; on Estrogen receptor, more than 30 µM. In addition, half-maximal activity on D(3) dopamine receptor (AC50) was put at 0.0178 µM.
